In ChEMBL document CHEMBL4673297, “Glutathione peroxidase-like functions of 1,2-diselenane-4,5-diol and its amphiphilic derivatives: Switchable catalytic cycles depending on peroxide substrates” (Bioorg Med Chem, 2021):
Active and inactive are the calls of the source. The rule behind the calls is not given here.

What was measured:
[1] = Glutathione peroxidase-like catalytic anti-lipid peroxidation activity assessed as inhibition of AAPH-induced lipid peroxidation incubated for 3 hrs using soybean lecithin/cholesterol-liposomes by TBARS assay; format: physicochemical
[2] = (§1) Glutathione peroxidase-like catalytic antioxidant activity in pH 7 phosphate buffer assessed as catalytic reduction of H2O2 by measuring initial velocity at 100 uM and 25 degreeC using GSH as mono-thiol co-substrate in presence of NADPH by UV absorbance analysis (reference value: 11 +/- 0.4 microM/min); format: functional
[3] = tested on: HeLa; experiment: (§2) Cytotoxicity against human HeLa cells assessed as cell viability at 20 uM measured after 15 hrs by MTT assay relative to control; format: cell-based; settings: hela, 15 h, 20 µM
[4] = tested on: HeLa; experiment: Protection against AAPH-induced oxidative stress in human HeLa cells assessed as increase in cell viability at 5 to 20 uM preincubated for 15 hrs followed by incubation with AAPH for 3 hrs by MTT assay relative to control; format: functional; settings: dose 5-20 µM; time 18 hrs
[5] = tested on: HeLa; experiment: Protection against H2O2-induced oxidative stress in human HeLa cells assessed as cell viability at 20 uM preincubated with compound for 15 hrs followed by drug wash-out and later incubated with H2O2 for 4 hrs by MTT assay; format: functional, cell-based
[6] = tested on: HeLa; experiment: Cytotoxicity against human HeLa cells assessed as reduction in cell viability at 100 uM measured after 15 hrs hrs by MTT assay; format: cell-based
[7] = Glutathione peroxidase-like catalytic antioxidant activity assessed as CST-HCl thiol co-substrate oxidation by measuring disulfide formation at 11.5 umol in presence of CHP lipophilic peroxide in water/CH2Cl2 solution incubated for 24 hrs by 1H-NMR spectroscopy; format: functional; settings: dose 11.5 µmol
[8] = as §1, with “0.2 mM” for “100 uM”, “reduced DTT” for “GSH”, “di-thiol” for “mono-thiol”, “72+/- 3” for “11 +/- 0.4”; format: functional
[9] = Solubility of the compound in phosphate buffer solution at pH 7.5 in presence of reduced DTT; format: physicochemical
[10] = Antioxidant activity assessed as radical scavenging activity by measuring DPBQ generation using DPPD and AMVN as radical initiator at 0.5 mM preincubated for 5 mins with DPPD followed by AMVN addition and measured for 30 mins by UV/Vis-spectrophotometry analysis; format: functional; settings: time 35.0 min
[11] = Glutathione peroxidase-like catalytic antioxidant activity assessed as CST-HCl thiol co-substrate oxidation by measuring disulfide formation at 11.5 umol in presence of CHP lipophilic peroxide in 10 mM aqueous HCl/CH2Cl2 solution incubated for 24 hrs by 1H-NMR spectroscopy; format: functional; settings: dose 11.5 µmol
[12] = as §2; format: cell-based; settings: HeLa cells, read-out: Activity
[13] = Glutathione peroxidase-like catalytic anti-lipid peroxidation activity assessed as inhibition of AAPH-induced lipid peroxidation incubated for 3 hrs in presence of (+/-)-trans-5-Hydroxy-1,2-diselenan-4-yl dodecanoate using soybean lecithin/cholesterol-liposomes by TBARS assay; format: physicochemical
[14] = Glutathione peroxidase-like catalytic antioxidant activity in pH 7 phosphate buffer assessed as catalytic reduction of H2O2 by measuring lipoic acid formation using DHLA as co-substrate at 0.2 mM in presence of NADPH by UV absorbance analysis; format: functional
[15] = Glutathione peroxidase-like catalytic activity assessed as drug oxidation by measuring (S)-[1,2,7]Oxadiselenepan-4-yl-ammonium formation incubated with 3.8 mM H2O2 in water at 3.8 mM incubated for 30 mins by ESI(+)-MS spectral analysis; format: functional
[16] = Glutathione peroxidase-like catalytic activity assessed as drug oxidation by measuring (S)-2-Oxo-2lambda(4)-[1,2]diselenan-4-yl-ammonium formation incubated with 3.8 mM H2O2 in water at 3.8 mM incubated for 30 mins by ESI(+)-MS spectral analysis; format: functional
[17] = Glutathione peroxidase-like catalytic activity assessed as drug oxidation by measuring (S)-[1,2,7]Oxadiselenepan-4-yl-ammonium formation incubated with 8.6 mM H2O2 in water at 3.8 mM incubated for 3 hrs by ESI(+)-MS spectral analysis; format: functional
[18] = Glutathione peroxidase-like catalytic activity assessed as drug oxidation by measuring (S)-2-Oxo-2lambda(4)-[1,2,7]oxadiselenepan-4-yl-ammonium formation incubated with 3.8 mM H2O2 in water at 3.8 mM incubated for 30 mins by ESI(+)-MS spectral analysis; format: functional
[19] = Glutathione peroxidase-like catalytic activity assessed as drug oxidation by measuring (S)-2-Oxo-2lambda(4)-[1,2,7]oxadiselenepan-4-yl-ammonium formation incubated with 8.6 mM H2O2 in water at 3.8 mM incubated for 3 hrs by ESI(+)-MS spectral analysis; format: functional
[20] = Glutathione peroxidase-like catalytic activity assessed as drug oxidation by measuring (S)-2-Oxo-2lambda(4)-[1,2]diselenan-4-yl-ammonium formation incubated with 8.6 mM H2O2 in water at 3.8 mM incubated for 3 hrs by ESI(+)-MS spectral analysis; format: functional
[21] = Glutathione peroxidase-like catalytic activity assessed as drug oxidation by measuring (S)-2-Oxo-2lambda(4)-[1,2]diselenan-4-yl-ammonium formation incubated with 8.6 mM H2O2 and 8.6 mM reduced DTT in water at 3.8 mM incubated for 2 mins by ESI(+)-MS spectral analysis; format: functional
[22] = Glutathione peroxidase-like catalytic activity assessed as drug oxidation by measuring (2S)-1,4-diseleninobutan-2-aminium formation incubated with 8.6 mM H2O2 in water at 3.8 mM incubated for 3 hrs by ESI(+)-MS spectral analysis; format: functional
[23] = Glutathione peroxidase-like catalytic activity assessed as drug oxidation by measuring (2S)-1,4-diseleninobutan-2-aminium formation incubated with 8.6 mM H2O2 and 8.6 mM reduced DTT in water at 3.8 mM incubated for 2 mins by ESI(+)-MS spectral analysis; format: functional
[24] = Glutathione peroxidase-like catalytic activity assessed as drug oxidation by measuring (S)-2,7-Dioxo-2lambda(4),7lambda(4)-[1,2,7]oxadiselenepan-4-yl-ammonium formation incubated with 8.6 mM H2O2 in water at 3.8 mM incubated for 3 hrs by ESI(+)-MS spectral analysis; format: functional
[25] = Glutathione peroxidase-like catalytic activity assessed as drug oxidation by measuring (S)-2-Oxo-2lambda(4)-[1,2,7]oxadiselenepan-4-yl-ammonium formation incubated with 8.6 mM H2O2 and 8.6 mM reduced DTT in water at 3.8 mM incubated for 2 mins by ESI(+)-MS spectral analysis; format: functional
[26] = Glutathione peroxidase-like catalytic activity assessed as drug oxidation by measuring (S)-2,7-Dioxo-2lambda(4),7lambda(4)-[1,2,7]oxadiselenepan-4-yl-ammonium formation incubated with 8.6 mM H2O2 and 8.6 mM reduced DTT in water at 3.8 mM incubated for 2 mins by ESI(+)-MS spectral analysis; format: functional
[27] = Glutathione peroxidase-like catalytic activity assessed as drug oxidation by measuring (S)-[1,2,7]Oxadiselenepan-4-yl-ammonium formation incubated with 8.6 mM H2O2 and 8.6 mM reduced DTT in water at 3.8 mM incubated for 2 mins by ESI(+)-MS spectral analysis; format: functional
[28] = Glutathione peroxidase-like catalytic activity assessed as drug oxidation by measuring (S)-2,7-Dioxo-2lambda(4),7lambda(4)-[1,2,7]oxadiselenepan-4-yl-ammonium formation incubated with 3.8 mM H2O2 in water at 3.8 mM incubated for 30 mins by ESI(+)-MS spectral analysis; format: functional

Structure (SMILES) | IC50 [1] [µM] | V0 [2] [µM/min] | Activity [3] | fold change (FC) [4] | Activity [5] | Activity [6] | V0 [8] [µM/min] | solubility [9] | further results
c1ccc([Se][Se]c2ccccc2)cc1 | 70.1 |  |  |  |  |  |  |  | 
CCCCCCCCCCCCCC(=O)O[C@@H]1C[Se][Se]C[C@H]1O (racemic) | 16.7 | 9.1 | Non-Toxic | 1.5 | inactive | Non-Toxic | 63 | Soluble | Activity [7]: Active; Activity [10]: inactive; Activity [11]: Active
O[C@@H]1C[Se]C[C@H]1O |  |  |  |  |  |  |  |  | IC50 [2]: Not Active; IC50 [8]: Not Active
O=c1c2ccccc2[se]n1-c1ccccc1 [EBSELEN] | 80.4 | 32.6 |  |  |  |  | 202 |  | viability at 15 h, 20 µM [12]: 80%
CC1=NN(c2ccccc2)C(=O)C1 [EDARAVONE] | 29.3 |  |  |  |  |  |  |  | IC50 [13]: 18.7 µM
O=C(O[C@@H]1C[Se][Se]C[C@H]1O)c1ccc2ccccc2c1 (racemic) | 15.5 | 11.3 | Non-Toxic | 1.5 | inactive | Toxic |  | Insoluble | 
CCC(=O)O[C@@H]1C[Se][Se]C[C@H]1O (racemic) | 121 | 23 | Toxic |  | inactive | Toxic | 330 | Soluble | Activity [14]: Active
CCCCCCCC(=O)O[C@@H]1C[Se][Se]C[C@H]1O (racemic) | 30 | 11.9 | Non-Toxic | 1.5 | inactive | Non-Toxic | 109 | Soluble | 
CCCCCCCCCCCC(=O)O[C@@H]1C[Se][Se]C[C@H]1O (racemic) | 10.7 | 9.3 | Non-Toxic | 1.5 | inactive | Non-Toxic | 122 | Soluble | 
N[C@H]1CC[Se][Se]C1 |  |  |  |  |  |  |  |  | Drug metabolism [15]: Metabolite detected; Drug metabolism [16]: Metabolite detected; Drug metabolism [17]: Metabolite detected; Drug metabolism [18]: Metabolite detected; Drug metabolism [19]: Metabolite detected; Drug metabolism [20]: Metabolite detected; Drug metabolism [21]: Metabolite detected; Drug metabolism [22]: Metabolite detected; Drug metabolism [23]: Metabolite not detected; Drug metabolism [24]: Metabolite detected; Drug metabolism [25]: Metabolite not detected; Drug metabolism [26]: Metabolite not detected; Drug metabolism [27]: Metabolite detected; Drug metabolism [28]: Metabolite detected
CCCCCCCCCC(=O)O[C@@H]1C[Se][Se]C[C@H]1O (racemic) | 13.2 | 10.9 | Non-Toxic | 1.5 | inactive | Non-Toxic | 172 | Soluble | 
CCCCCC(=O)O[C@@H]1C[Se][Se]C[C@H]1O (racemic) | 42.2 | 14.9 | Toxic |  | inactive | Toxic | 149 | Soluble | Activity [14]: Active
O=C(O[C@@H]1C[Se][Se]C[C@H]1O)c1ccccc1 (racemic) | 27.3 | 12.7 | Toxic |  | inactive | Toxic | 116 | Soluble | 
